Data taken from US20240327385A1, “SUBSTITUTED PIPERIDINE COMPOUNDS AS RENIN INHIBITORS” (priority 2023, published 2024).

Molecular target: human recombinant renin (Homo sapiens (Human), UniProt P00797)
Test: human renin activity inhibition (SensoLyte 520 Renin Assay Kit Fluorimetric)
Type: biochemical
Details: 30 min preincubation at 37° C., fluorescence at 530 nm after 15 min at 37° C., read-out: IC50 (nM), inhibitory effect on human renin activity
Protocol: The exemplary compounds of the disclosure were tested for their inhibitory effects on human renin activity, using a commercially available renin assay kit (SensoLyte® 520 Renin Assay Kit Fluorimetric), following the manufacture's manual.
Briefly, human recombinant renin (from the kit) was incubated with the compound of the disclosure or buffer for 30 min at 37° C. before substrate addition. Fluorescence intensity was measured at 530 nm after an incubation of 15 min at 37° C. Data was analyzed by Prism and fitted into a sigmodal curve for IC50 calculation.

Chain of human recombinant renin (P00797 67-406): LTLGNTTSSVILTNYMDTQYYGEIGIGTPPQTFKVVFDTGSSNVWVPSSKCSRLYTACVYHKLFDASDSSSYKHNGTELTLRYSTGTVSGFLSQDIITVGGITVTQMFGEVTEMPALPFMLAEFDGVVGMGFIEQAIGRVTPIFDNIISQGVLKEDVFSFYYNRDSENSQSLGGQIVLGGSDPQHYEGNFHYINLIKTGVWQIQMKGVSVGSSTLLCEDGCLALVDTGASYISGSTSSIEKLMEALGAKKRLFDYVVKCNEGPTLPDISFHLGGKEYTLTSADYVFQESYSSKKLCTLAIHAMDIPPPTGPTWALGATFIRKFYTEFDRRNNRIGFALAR

Row | Structure (SMILES) | IC50
1 | CO[C@H]1C[C@H](Nc2cc(C3CC3)cnc2C(=O)N(CC(C)C)[C@H]2CCCNC2)C1 [Compound 26, (3S)—{N-(2-methylpropyl), N-{5-cyclopropyl-3-[3-(trans-methoxy)cyclobutyl]amino}pyridine-2-carbonyl}amino-piperidine] | < 20 nM
2 | CO[C@H]1C[C@H](Nc2cc(C3CC3)cnc2C(=O)N(CC(C)C)[C@@H]2CNC[C@H](C(=O)N3CC(F)C3)C2)C1 [Compound 10, (3S)—{N-(2-methylpropyl), N-{5-cyclopropyl-3-[3-(trans-methoxy)cyclobutyl]amino}pyridine-2-carbonyl}amino-(5R)-(3-fluoroazetidine-N-carbonyl)-piperidine] | 1.8 nM
3 | CC[C@H]1COCCN1C(=O)[C@H]1CNC[C@@H](N(CC(C)C)C(=O)c2ncc(C3CC3)cc2N[C@H]2C[C@H](OC)C2)C1 [Compound 27, (3S)—{N-(2-methylpropyl), N-{5-cyclopropyl-3-[3-(trans-methoxy)cyclobutyl]amino}pyridine-2-carbonyl}amino-(5R)-[(3S)-ethylmorpholine-N-carbonyl]-piperidine] | < 250 nM
4 | CO[C@H]1C[C@H](Nc2cc(C3CC3)cnc2C(=O)N(CC(C)C)C2CNCC(C(=O)N3CCC(F)(F)CC3)C2)C1 (stereo partly drawn) [Compound 12, (3S)—{N-(2-methylpropyl), N-{5-cyclopropyl-3-[3-(trans-methoxy)cyclobutyl]amino}pyridine-2-carbonyl}amino-(5R)-(4,4-difluoropiperidine-N-carbonyl)-piperidine] | 1.6 nM
5 | CO[C@H]1C[C@H](Nc2cc(C3CC3)cnc2C(=O)N(CC(C)C)C2CNCC(C(=O)N3CCC(F)(F)C3)C2)C1 (stereo partly drawn) [Compound 11, (3S)—{N-(2-methylpropyl), N-{5-cyclopropyl-3-[3-(trans-methoxy)cyclobutyl]amino}pyridine-2-carbonyl}amino-(5R)-(3,3-difluoropyrrolidine-N-carbonyl)-piperidine] | 1.2 nM
6 | CO[C@H]1C[C@H](Nc2cc(C3CC3)cnc2C(=O)N(CC(C)C)C2CNCC(C(=O)N3CCC(OC(F)(F)F)CC3)C2)C1 (stereo partly drawn) [Compound 13, (3S)—{N-(2-methylpropyl), N-{5-cyclopropyl-3-[3-(trans-methoxy)cyclobutyl]amino}pyridine-2-carbonyl}amino-(5R)-(4-trifluoromethoxypiperidine-N-carbonyl)-piperidine] | 3.8 nM
7 | CO[C@H]1C[C@H](Nc2cc(C3CC3)cnc2C(=O)N(CC(C)C)C2CNCC(C(=O)N3CCOC[C@@H]3C)C2)C1 (stereo partly drawn) [Compound 15, (3S)—{N-(2-methylpropyl), N-{5-cyclopropyl-3-[3-(trans-methoxy)cyclobutyl]amino}pyridine-2-carbonyl}amino-(5R)-[(3S)-methylmorpholine-N-carbonyl]-piperidine] | 1 nM
8 | CO[C@H]1C[C@H](Nc2cc(C3CC3)cnc2C(=O)N(CC(C)C)C2CNC[C@H](c3nnc(C4CC(F)(F)C4)o3)C2)C1 (stereo partly drawn) [Compound 24, (3S)—{N-(2-methylpropyl), N-{5-cyclopropyl-3-[3-(trans-methoxy)cyclobutyl]amino}pyridine-2-carbonyl}amino-(5R)-(3,3-diflurorocyclobutyl-1,3,4-oxadiazol-2-yl)-piperidine] | 1 nM
9 | CO[C@H]1C[C@H](Nc2cc(C3CC3)cnc2C(=O)N(CC(C)C)C2CNC[C@H](c3nnc(C)o3)C2)C1 (stereo partly drawn) [Compound 22, (3S)—{N-(2-methylpropyl), N-{5-cyclopropyl-3-[3-(trans-methoxy)cyclobutyl]amino}pyridine-2-carbonyl}amino-(5R)-(5-methyl-1,3,4-oxadiazol-2-yl)-piperidine] | 1.3 nM
10 | CC(C)CN(C(=O)c1ncc(C2CC2)cc1NC1CC1)[C@@H]1CNC[C@H](C(=O)N2CCOCC2)C1 [Compound 25, (3S)—[N-(2-methylpropyl), N-(5-cyclopropyl-3-cyclopropylamino)pyridine-2-carbonyl]amino-(5R)-(morpholine-N-carbonyl)-piperidine] | < 10 nM
11 | CC(C)CN(C(=O)c1ncc(C2CC2)cc1NC1CC1)C1CNCC(C(=O)N2CCOC[C@@H]2C)C1 (stereo partly drawn) [Compound 21, (3S)—[N-(2-methylpropyl), N-(5-cyclopropyl-3-cyclopropylamino)pyridine-2-carbonyl]amino-(5R)-[(3S)-methylmorpholine-N-carbonyl]-piperidine] | 1.4 nM

Now from value to compound:

Row | IC50 | Structure (SMILES)
12 | < 30 nM | CC(C)CN(C(=O)c1ncc(C2CC2)cc1NC1COC1)[C@@H]1CNC[C@H](c2ncon2)C1 [Compound 42, (3S)—{N-(2-methylpropyl), N-[5-cyclopropyl-3-(oxetan-3-yl)amino]pyridine-2-carbonyl}amino-(5R)-(1,2,4-oxadiazol-3-yl)-piperidine]
13 | < 10 nM | CC(C)CN(C(=O)c1ncc(C2CC2)cc1NC1COC1)[C@@H]1CNCC(c2nnc(C3CC3)o2)C1 (stereo partly drawn) [Compound 32, (3S)—{N-(2-methylpropyl), N-[5-cyclopropyl-3-(oxetan-3-yl)amino]pyridine-2-carbonyl}amino-(5R)-(5-cyclopropyl-1,3,4-oxadiazol-2-yl)-piperidine]
14 | < 10 nM | CO[C@H]1C[C@H](Nc2cc(C3CC3)cnc2C(=O)N(CC(C)C)[C@@H]2CNC[C@H](c3noc(C)n3)C2)C1 [Compound 28, (3S)—{N-(2-methylpropyl), N-{5-cyclopropyl-3-[3-(trans-methoxy)cyclobutyl]amino}pyridine-2-carbonyl}amino-(5R)-(5-methyl-1,2,4-oxadiazol-3-yl)-piperidine]
15 | < 10 nM | CO[C@H]1C[C@H](Nc2cc(C3CC3)cnc2C(=O)N(CC(C)C)[C@@H]2CNCC(c3nnc(C4COC4)o3)C2)C1 (stereo in doubt) [Compound 34, (3S)—{N-(2-methylpropyl), N-{5-cyclopropyl-3-[3-(trans-methoxy)cyclobutyl]amino}pyridine-2-carbonyl}amino-(5R)-[5-(oxetan-3-yl)-1,3,4-oxadiazol-2-yl]-piperidine]
16 | < 10 nM | CO[C@H]1C[C@H](Nc2cc(C3CC3)cnc2C(=O)N(CC(C)C)[C@@H]2CNC[C@H](c3ncon3)C2)C1 [Compound 39, (3S)—{N-(2-methylpropyl), N-{5-cyclopropyl-3-[3-(trans-methoxy)cyclobutyl]amino}pyridine-2-carbonyl}amino-(5R)-(1,2,4-oxadiazol-3-yl)-piperidine]
17 | < 50 nM | CC(C)CN(C(=O)c1ncc(C2CC2)cc1NC1COC1)[C@H]1CCCNC1 [Compound 36, (3S)—{N-(2-methylpropyl), N-[5-cyclopropyl-3-(oxetan-3-yl)amino]pyridine-2-carbonyl}amino-piperidine]
18 | < 10 nM | [2H]C([2H])([2H])O[C@H]1C[C@H](Nc2cc(C3CC3)cnc2C(=O)N(CC(C)C)[C@@H]2CNC[C@H](c3nnco3)C2)C1 [Compound 45, (3S)—{N-(2-methylpropyl), N-{5-cyclopropyl-3-[3-(trans-methoxy-d3)cyclobutyl]amino}pyridine-2-carbonyl}amino-(5R)-(1,3,4-oxadiazol-2-yl)-piperidine]
19 | < 10 nM | CC(C)CN(C(=O)c1ncc(C(F)(F)F)cc1NC1COC1)[C@@H]1CNC[C@H](C(=O)N2CCOCC2)C1 [Compound 43, (3S)—{N-(2-methylpropyl), N-[5-trifluoromethyl-3-(oxetan-3-yl)amino]pyridine-2-carbonyl}amino-(5R)-(morpholine-N-carbonyl)-piperidine]
20 | < 10 nM | CO[C@H]1C[C@H](Nc2cccnc2C(=O)N(CC(C)C)[C@@H]2CNCC(c3nnc(C4CC4)o3)C2)C1 (stereo partly drawn) [Compound 31, (3S)—{N-(2-methylpropyl), N-[3-(3-trans-methoxy)cyclobutyl]amino-pyridine-2-carbonyl}amino-(5R)-(5-cyclopropyl-1,3,4-oxadiazol-2-yl)-piperidine]
21 | < 20 nM | Cc1nnc(C2CNC[C@@H](N(CC(C)C)C(=O)c3ncc(C4CC4)cc3NC3COC3)C2)o1 (stereo in doubt) [Compound 37, (3S)—{N-(2-methylpropyl), N-[5-cyclopropyl-3-(oxetan-3-yl)amino]pyridine-2-carbonyl}amino-(5R)-(5-methyl-1,3,4-oxadiazol-2-yl)-piperidine]
22 | < 10 nM | CO[C@H]1C[C@H](Nc2cc(C3CC3)cnc2C(=O)N(CC(C)C)[C@@H]2CNC[C@H](c3nc(C)no3)C2)C1 [Compound 29, (3S)—{N-(2-methylpropyl), N-{5-cyclopropyl-3-[3-(trans-methoxy)cyclobutyl]amino}pyridine-2-carbonyl}amino-(5R)-(3-methyl-1,2,4-oxadiazol-5-yl)-piperidine]
23 | < 10 nM | CC(C)CN(C(=O)c1ncc(C2CC2)cc1NC1COC1)[C@@H]1CNC[C@H](C(=O)N2CCOCC2)C1 [Compound 30]
24 | < 20 nM | CO[C@H]1C[C@H](Nc2cc(C3CC3)cnc2C(=O)N(CC(C)C)[C@@H]2CNC[C@H](CO)C2)C1 [Compound 35, (3S)—{N-(2-methylpropyl), N-{5-cyclopropyl-3-[3-(trans-methoxy)cyclobutyl]amino}pyridine-2-carbonyl}amino-(5R)-hydroxymethyl-piperidine]
25 | < 10 nM | CO[C@H]1C[C@H](Nc2cc(C3CC3)cnc2C(=O)N(CC2CC2)[C@@H]2CNCC(c3nnco3)C2)C1 (stereo in doubt) [Compound 44, (3S)—{N-cyclopropylmethyl, N-{5-cyclopropyl-3-[3-(trans-methoxy)cyclobutyl]amino}pyridine-2-carbonyl}amino-(5R)-(1,3,4-oxadiazol-2-yl)-piperidine]
26 | < 50 nM | Cc1noc(C2CNC[C@@H](N(CC(C)C)C(=O)c3ncc(C4CC4)cc3NC3COC3)C2)n1 (stereo in doubt) [Compound 38, (3S)—{N-(2-methylpropyl), N-[5-cyclopropyl-3-(oxetan-3-yl)amino]pyridine-2-carbonyl}amino-(5R)-(3-methyl-1,2,4-oxadiazol-5-yl)-piperidine]
27 | < 10 nM | CO[C@H]1C[C@H](Nc2cc(C3CC3)cnc2C(=O)N(CC2CC2)[C@@H]2CNC[C@H](c3nnc(C)o3)C2)C1 [Compound 41]
